# According to patent US20050112183A1, “Compositions and methods for treating neuropathic sensory loss” (priority 2003, published 2005):
# System: neuropathically induced negative sensory phenomena (NSP)
# Test: application of local anesthetic to diabetic neuropathy patients, patient-reported
# Format: in vivo
# Settings: some diabetic neuropathy patients; local application of the anesthetic
# Text: It has previously been assumed that positive sensory phenomena (“PSP”) is caused by an increase in spontaneous nerve discharge from damaged and dysfunctional peripheral nerves. […] Based on the current understanding of the underlying etiology of NSP it would be unexpected that an anesthetic would effectively mitigate the negative effects of NSP. It has now been found, however, that the application of local anesthetics such as lidocaine can effectively treat NSP. For example, some diabetic neuropathy patients reported both pain relief and improved NSP, that is, the patients experienced pain relief, improvement of sensory loss (decreased numbness), and improved tactile response (they could better feel objects touching their skin). Thus the anesthetic as applied in this embodiment decreased numbness. This is contrary to all prior teachings about anesthetics.
compound,measurement,value
"CCN(CC)CC(=O)Nc1c(C)cccc1C [lidocaine, 2-(diethylamino)-N-(2,6-dimethylphenyl)-acetamide]","negative sensory phenomena (NSP: numbness, sensory loss, tactile response) as reported by patients",improved NSP
same,pain as reported by patients,pain relief
